Experimental data: article PMC5091859, “Protein Translation Enzyme lysyl-tRNA Synthetase Presents a New Target for Drug Development against Causative Agents of Loiasis and Schistosomiasis” (PLoS Neglected Tropical Diseases, 2016)
Where “and” joins values, the source holds several entries; their conditions need not be identical. Identical values can stand only once. One block for each molecule: values may come before it.

How the values were obtained:
[1] = system: malaria liver stage; set-up: method as in PMID 22704625; conditions: cited from earlier work
[2] = target: T1, LlKRS (Loa loa, UniProt A0A1I7VQ84); assay: Isothermal titration calorimetry, LlKRS; format: binding; conditions: 30°C
Procedure: (§1) ITC experiments were conducted at 30°C in the MicroCal ITC-200 apparatus (GE Healthcare) and results were fitted into graph using Microcal origin software. […] For LlKRS, titrations consisted of 0.4 μl of first injection followed by 39 injections of 1 μl with 150 s intervals between injections. For SmKRS, same titrations were performed with 120 s intervals.

[3] = target: human counterpart KRS (HsKRS); conditions: read-out: Affinity for human counterpart KRS; cited from earlier work
[4] = target: T2, SmKRS (Schistosoma mansoni, UniProt A0A3Q0KK01); assay: Isothermal titration calorimetry, SmKRS; format: binding; conditions: 30°C
Procedure: as §1

[5] = system: malaria blood stage; set-up: method as in PMID 22704625; conditions: cited from earlier work
[6] = target: SmKRS (S. mansoni lysyl-tRNA synthetase), wild type (Schistosoma mansoni, UniProt A0A3Q0KK01); assay: Aminoacylation enzyme inhibition assay, SmKRS; format: biochemical; conditions: 500 nM enzyme, 100 μM ATP, 500 μM L-lysine, 18 μM SmtRNALys, 37°C
Procedure: Aminoacylation and enzyme inhibition assays for both KRSs were performed as described elsewhere [17, 48]. SmtRNA^Lys was refolded prior to enzyme assays by heating at 70°C for 10 minutes followed by addition of 10 mM MgCl2 and slow cooling to room temperature. Aminoacylation buffer for both worm KRSs contained 30 mM HEPES (pH 7.5), 150 mM NaCl, 30 mM KCl, 50 mM MgCl2, 1mM DTT, 100 μM ATP, 500 μM L-lysine, 18 μM SmtRNA^Lys, 2 U/ml E. coli inorganic pyrophosphatase (NEB) and 500 nM recombinant SmKRS or LlKRS protein at 37°C. Reaction at different time points was stopped by addition of 40 mM EDTA followed by transfer to ice. Recombinant maltose binding protein (MBP) was used as a control.

[7] = set-up: method as in PMID 22704625; conditions: main limitation as a lead molecule; cited from earlier work
[8] = target: Loa loa lysyl-tRNA synthetase (Loa loa); assay: SEC; gel permeation chromatography of the purified protein on a column calibrated with high molecular weight standards, protein buffer as mobile phase, 0.5 ml/min; elution at dimer size, no absorbance at tetrameric size
[9] = target: Schistosoma mansoni lysyl-tRNA synthetase (Schistosoma mansoni); assay: as above
[10] = target: T2, SmKRS; assay: Protein thermal shift assay, SmKRS; format: binding; conditions: ligand 20 μM, KRS 2 μM (10:1), 1 mM L-lysine
Procedure: (§2) Protein melt curve assays for both worm KRSs were performed as reported earlier. Both KRSs were diluted in buffer containing 20 mM Tris (pH 8.0), 200 mM NaCl, 5 mM MgCl2, 1 mM L-lysine and 2 X SYPRO orange dye (Life Technologies). […] Ligand bound and unbound samples of both KRSs were heated from 20 to 96°C at a rate of 1°C min^-1 and fluorescence signals were monitored by StepOnePlus quantitative real-time PCR system (Life Technologies). […] Each curve was an average of three measurements and data were analyzed using thermal shift software (Life technologies). Samples without the addition of ligands were used to determine thermal melting profile of apo proteins. […] Derivative Tm (melting temperature) was used for analysis.

[11] = target: Human-like LlKRS V329Q/S346T mutant (Loa loa, UniProt A0A1I7VQ84); format: binding; conditions: ligand 20 μM, KRS 2 μM (ten fold), 1 mM L-lysine
[12] = target: T1, LlKRS; assay: Protein thermal shift assay, LlKRS; format: binding; conditions: ligand 20 μM, KRS 2 μM (10:1), 1 mM L-lysine
Procedure: as §2

n Value (one site model), LlKRS [2]: 0.821 ± 0.01
ΔH (ITC), LlKRS [2]: -72.3 ± 1.659 kJ/mol
ΔS (ITC), LlKRS [2]: -24.9 cal/mol/deg
n Value (one site model), SmKRS [4]: 0.979 ±0.00
ΔH (ITC), SmKRS [4]: -69.413 ± 0.8422 kJ/mol
ΔS (ITC), SmKRS [4]: -21.7 cal/mol/deg
Kd ([4]; PBS pH 7.4, 1 mM L-Lys, 2 mM MgCl2, read-out: Kd (ITC), SmKRS): 0.0628 ± 0.0078 µM
IC50 [6]: 0.097 µM and ~0.097 µM
Molecule: C[C@H]1CCC[C@H](C[C@H]2Cc3cc(O)cc(O)c3C(=O)O2)O1 [cladosporin]
IC50 [1]: < 0.1 µM
Kd [3]: 3.3 µM
IC50 [5]: < 0.1 µM
Bioavailability [7]: Poor

stoichiometry N [8]: 2
Molecule: Loa loa lysyl-tRNA synthetase (enzyme)

stoichiometry N [9]: 2
Molecule: Schistosoma mansoni lysyl-tRNA synthetase (enzyme)

Molecule: adenosine 5’-(β, γ-imido) triphosphate [AMPPNP]
Thermal shift of SmKRS [10]: ~ 0.4 °C
Thermal shift of human-like LlKRS [11]: ~ 0.4 °C
Thermal shift of LlKRS [12]: ~ 0.3 °C
